The values below come from patent US12622915B2, “Methods of treating PDE IV-mediated diseases or conditions” (Vanda Pharmaceuticals Inc., priority 2020, dated 2026).

SMILES strings stand for the structures.

The nature of series [1]: Plasma and ear skin concentration in IMQ model, day 6. The conditions noted are these: day 6, post 2h treatment, topical 0.5%. It is filed as in vivo, BALB/c mice. As to the method: On day 6, blood is collected by retro-orbital bleeding under isoflurane anesthesia prior to euthanasia. Blood is collected in K2-EDTA tubes and plasma is separated and stored at −80° C. for further analysis (for test item concentration).
On day 6, post 2h treatment, plasma and ear skin concentration of animals treated with the compound of Formula (I) are estimated. […] The concentration in the ear skin is close to 976-fold more than the plasma levels.

Series [2] in a line: Preclinical genotoxicity studies (mutations, clastogenic effects). The conditions noted are these: in vitro or in vivo.
Series [3] has as its target T1, Phosphodiesterase PDE10A2 (Homo sapiens, UniProt Q9Y233).
T1 construct: host or cells: insect Sf9 cells
The series is described as follows: Phosphodiesterase PDE10A2 enzyme assay. It is filed as biochemical. The settings on record: N=2, Example 3. The source says: (§1) Reference standards are run as an integral part of each assay to ensure the validity of the results obtained. Reference Compounds: • Phosphodiesterase PDE10A2 Papaverine • Phosphodiesterase PDE11A4 Dipyridamole • Phosphodiesterase PDE1A MMPX • Phosphodiesterase PDE2A EHNA • Phosphodiesterase PDE3A Cilostamide • Phosphodiesterase PDE4A1A Rolipram • Phosphodiesterase PDE4B1 Rolipram • Phosphodiesterase PDE5A Zaprinast • Phosphodiesterase PDE6 Zaprinast • Phosphodiesterase PDE7A IBMX • Phosphodiesterase PDE7B IBMX • Phosphodiesterase PDE8A1 Dipyridamole • Phosphodiesterase PDE9A2 Zaprinast
(§2) Phosphodiesterase PDE4A1A; Phosphodiesterase PDE4B1; Phosphodiesterase PDE10A2; Phosphodiesterase PDE11A4; Phosphodiesterase PDE2A; Phosphodiesterase PDE3A; Phosphodiesterase PDE7A; Phosphodiesterase PDE7B; and Phosphodiesterase PDE8A1: • Source: Human recombinant insect Sf9 cells • Substrate: 0.10 μM FAM-cAMP • Vehicle: 1.00% DMSO • Significance Crit.: ≥50% of max stimulation or inhibition • Incubation Buffer: 10 mM Tris-HCl, pH 7.2, 10 mM MgCl2, 0.05% NaN3, 0.1% phosphate-free BSA • Quantitation Method: Quantitation of Fluorescein-AMP-IMAP • Pre-Incub. Time/Temp: 15 minutes @25° C. • Incubation Time/Temp: 30 minutes @25° C.
(§3) IC50 values are determined by a non-linear, least squares regression analysis using MathIQ™ (ID Business Solutions Ltd., UK). […]

Series [4] is described as follows: Ocular instillation studies. It is filed as in vivo. The settings on record: preclinical ocular instillation studies.
A further series addresses T2, Phosphodiesterase PDE4D2 (Homo sapiens, UniProt Q08499).
T2 construct: host or cells: insect Sf9 cells
Put plainly: Phosphodiesterase PDE4D2 enzyme assay. It is filed as biochemical. As to the method: Roliprami is used as a reference standard.
PDE4 assays are performed using methods adapted from the literature. See Houslay MD (2005) The long and short of vascular smooth muscle phosphodiesterase-4 as a putative therapeutic target. Mol Pharmacol. 68(3):563-567; MacKenzie S J and Houslay M D (2000) Action of rolipram on specific PDE4 cAMP phosphodiesterase isoforms and on the phosphorylation of cAMP-response element-binding protein (CREB) and p38 mitogen-activated protein (MAP) kinase in U937 monocytic cells. Biochem J. 347(Pt 2): 571-578.
Phosphodiesterase PDE4D2: • Source: Human recombinant insect Sf9 cells • Substrate: 0.10 μM FAM-cAMP • Vehicle: 1.00% DMSO • Significance Crit.: ≥50% of max stimulation or inhibition • Incubation Buffer: 10 mM Tris-HCl, pH 7.2, 10 mM MgCl2, 0.05% NaN3, 0.1% phosphate-free BSA • Quantitation Method: Quantitation of Fluorescein-AMP-IMAP • Pre-Incub. Time/Temp: 15 minutes @25° C. • Incubation Time/Temp: 15 minutes @25° C.
IC50 values are determined by a non-linear, least squares regression analysis using MathIQ™ (ID Business Solutions Ltd., UK). Where inhibition constants (Ki) are presented, the Ki values are calculated using the equation of Cheng and Prusoff (Cheng, Y., Prusoff, W.H., Biochem. Pharmacol. 22:3099-3108, 1973) using the observed IC50 of the tested compound, the concentration of radioligand employed in the assay, and the historical values for the KD of the ligand (obtained experimentally at Eurofins Panlabs, Inc.). Where presented, the Hill coefficient (nH), defining the slope of the competitive binding curve, is calculated using MathIQ™. […] Where IC50, Ki, and/or nH data are presented without Standard Error of the Mean (SEM), data are insufficient to be quantitative, and the values presented (Ki, IC50, nH) are interpreted with caution.

Another series has as its target T3, Phosphodiesterase PDE7B (Homo sapiens, UniProt Q9NP56).
T3 construct: host or cells: insect Sf9 cells
Put plainly: Phosphodiesterase PDE7B enzyme assay. Type of series: biochemical. The settings on record: N=2, Example 3.
Text: as §1, §2, §3

Series [5] deals with PMA-induced ear thickening and ear weight gain. Put plainly: PMA-induced ear inflammation model (Example 1). Type of series: in vivo, BALB/c. The conditions noted are these: 6 hours post PMA, topical 0.5% w/v on both ears 30 min before and 15 min after PMA. As to the method:
Animals in group 2, 3, and 4 receive dexamethasone, Crisaborole and the compound of Formula (I), respectively (as a solution in acetone and ethanol by 1:1 ratio), 30 min before PMA challenge, on both ears.
• −24 hr—Randomization (body weight based) • −30 min—Treatment Topical • 0 min—Disease Induction PMA application • 15 min—Treatment Topical • 6 hr—Skin Thickness, Skin Collection (Cohort 1) • 24 hr—Skin Thickness, Skin Collection (Cohort 2)
5 μg/20 μl/right ear and 5 μg/20 μl/left ear (2.5 μg/10 μl in anterior and posterior surface of both ears)
Phorbol 12-myristate 13-acetate (PMA) is formulated in acetone at a concentration of 250 μg/ml. This working solution is applied topically to the anterior and posterior surface of both the ear (10 μl each side).
Ear thickness (both right and left ear): at −1 hr (before PMA challenge), 6 hr and 24 hrs post PMA challenge.
At 6 hr and 24 hrs, respective cohort of animals are euthanized, and ear tissues are collected. […] Left ears are collected and preserved in 10% NBF for Histopathology.

As a reminder, the inhibition is the drop in the measured response relative to a control, in per cent. In general, IC50 refers to the concentration at which inhibition is half-maximal. Read a high IC50 as weaker potency.

T2 sequence (Q08499 303-809 limits assumed): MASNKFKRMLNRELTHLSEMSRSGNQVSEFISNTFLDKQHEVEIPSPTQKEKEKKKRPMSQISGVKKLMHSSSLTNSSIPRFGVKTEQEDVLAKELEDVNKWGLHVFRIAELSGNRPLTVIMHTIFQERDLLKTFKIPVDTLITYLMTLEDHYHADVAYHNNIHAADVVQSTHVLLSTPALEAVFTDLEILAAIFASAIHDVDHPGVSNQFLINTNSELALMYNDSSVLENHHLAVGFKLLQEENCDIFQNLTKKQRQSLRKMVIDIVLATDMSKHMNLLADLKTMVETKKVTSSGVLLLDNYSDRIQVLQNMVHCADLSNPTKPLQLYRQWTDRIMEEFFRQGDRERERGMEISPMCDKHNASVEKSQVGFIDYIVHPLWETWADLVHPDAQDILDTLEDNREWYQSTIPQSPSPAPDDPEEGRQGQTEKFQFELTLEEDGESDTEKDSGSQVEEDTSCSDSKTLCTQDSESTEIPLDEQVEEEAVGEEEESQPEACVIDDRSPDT
T3 sequence (Q9NP56 whole entry): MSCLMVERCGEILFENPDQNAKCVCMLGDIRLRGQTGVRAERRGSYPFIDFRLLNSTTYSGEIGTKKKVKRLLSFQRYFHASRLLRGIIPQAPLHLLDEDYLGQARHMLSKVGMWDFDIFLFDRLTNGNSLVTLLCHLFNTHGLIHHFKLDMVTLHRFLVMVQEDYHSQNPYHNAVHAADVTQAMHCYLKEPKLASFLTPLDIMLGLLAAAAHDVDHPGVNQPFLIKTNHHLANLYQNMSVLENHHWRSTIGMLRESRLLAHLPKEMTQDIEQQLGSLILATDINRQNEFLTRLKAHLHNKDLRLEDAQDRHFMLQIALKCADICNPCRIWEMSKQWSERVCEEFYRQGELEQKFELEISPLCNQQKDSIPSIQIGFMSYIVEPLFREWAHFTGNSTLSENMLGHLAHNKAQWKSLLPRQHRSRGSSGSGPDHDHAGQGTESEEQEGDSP
T1 sequence (Q9Y233 267-1055): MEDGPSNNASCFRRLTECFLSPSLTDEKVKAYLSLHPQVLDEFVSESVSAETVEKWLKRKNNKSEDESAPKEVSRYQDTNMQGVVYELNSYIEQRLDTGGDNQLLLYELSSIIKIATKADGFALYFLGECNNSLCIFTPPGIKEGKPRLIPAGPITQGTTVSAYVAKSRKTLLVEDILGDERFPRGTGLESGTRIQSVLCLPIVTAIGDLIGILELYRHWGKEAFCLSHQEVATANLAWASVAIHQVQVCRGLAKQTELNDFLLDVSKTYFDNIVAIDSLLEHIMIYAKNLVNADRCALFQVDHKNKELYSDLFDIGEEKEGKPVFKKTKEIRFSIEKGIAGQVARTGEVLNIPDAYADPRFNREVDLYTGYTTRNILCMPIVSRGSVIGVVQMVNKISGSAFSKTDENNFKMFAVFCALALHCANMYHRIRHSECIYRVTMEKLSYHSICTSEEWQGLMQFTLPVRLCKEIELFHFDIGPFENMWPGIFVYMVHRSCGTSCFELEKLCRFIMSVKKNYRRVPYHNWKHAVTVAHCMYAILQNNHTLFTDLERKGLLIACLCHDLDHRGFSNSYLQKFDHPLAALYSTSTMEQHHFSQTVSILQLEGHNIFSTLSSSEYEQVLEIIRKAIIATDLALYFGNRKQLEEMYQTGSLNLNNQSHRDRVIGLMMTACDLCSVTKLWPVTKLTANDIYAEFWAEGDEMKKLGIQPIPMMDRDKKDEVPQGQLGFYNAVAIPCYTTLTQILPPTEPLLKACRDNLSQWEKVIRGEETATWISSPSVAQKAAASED

With `CNc1nc(Nc2ccccc2)nc(OCC(F)(F)C(F)F)n1` [compound of Formula (I), N^2-methyl-N^4-phenyl-6-(2,2,3,3-tetrafluoropropoxy)-1,3,5-triazine-2,4-diamine], the Kp in series [1] (BALB/c, mouse, ear skin / plasma, read-out: Concentration in the ear skin relative to plasma levels) is roughly 976. The “Concentrations in plasma and ear skin” value in series [1] is “Significant concentrations”. In addition, in series [2], the “Mutations or biologically relevant clastogenic effects” value is given as “does not induce mutations or biologically relevant clastogenic effects”. Moreover, the inhibition at 10 µM in series [3] was 11%; against Phosphodiesterase PDE4D2 (10 μM (first line, r2), N=2, Example 5) it was 99%; at Phosphodiesterase PDE7B it was -1%. In series [4], the “Tolerability on ocular instillation” value was “well tolerated”. Also, on Phosphodiesterase PDE4D2 (0.03 μM, N=2, Example 5), the inhibition at 0.03 µM was 70%. Further, the inhibition at 0.1 µM at Phosphodiesterase PDE4D2 (0.1 μM, N=2, Example 5) was determined as 83%. Further, the inhibition at 0.3 µM on Phosphodiesterase PDE4D2 (0.3 μM, N=2, Example 5) stood at 91%. Moreover, the inhibition at 1 µM at Phosphodiesterase PDE4D2 (1 μM, N=2, Example 5) is 96%. For the same compound, on Phosphodiesterase PDE4D2 (3 μM, N=2, Example 5), the inhibition at 3 µM worked out at 97%. In addition, 6.19 nM corresponded to half-maximal inhibition on Phosphodiesterase PDE4D2 (Example 5) (IC50). Also, the PMA-induced ear thickening result in series [5] is recorded as “prevents or reduces”. For the same compound, the “PMA-induced ear weight gain” value in series [5] was “prevents or reduces”.
